Test results published in ChEMBL document CHEMBL4507319 (2021).

How the values were obtained:
[1] = target: Tyrosine-protein kinase JAK1 (Homo sapiens) (UniProt P23458); conditions: Compound concentration 1000.0 nM
[2] = target: Dual specificity protein kinase CLK4 (Homo sapiens) (UniProt Q9HAZ1); conditions: Compound concentration 1000.0 nM
[3] = target: T1, SNF-related serine/threonine-protein kinase (Homo sapiens) (UniProt Q9NRH2); conditions: Compound concentration 1000.0 nM
T1 sequence (whole entry): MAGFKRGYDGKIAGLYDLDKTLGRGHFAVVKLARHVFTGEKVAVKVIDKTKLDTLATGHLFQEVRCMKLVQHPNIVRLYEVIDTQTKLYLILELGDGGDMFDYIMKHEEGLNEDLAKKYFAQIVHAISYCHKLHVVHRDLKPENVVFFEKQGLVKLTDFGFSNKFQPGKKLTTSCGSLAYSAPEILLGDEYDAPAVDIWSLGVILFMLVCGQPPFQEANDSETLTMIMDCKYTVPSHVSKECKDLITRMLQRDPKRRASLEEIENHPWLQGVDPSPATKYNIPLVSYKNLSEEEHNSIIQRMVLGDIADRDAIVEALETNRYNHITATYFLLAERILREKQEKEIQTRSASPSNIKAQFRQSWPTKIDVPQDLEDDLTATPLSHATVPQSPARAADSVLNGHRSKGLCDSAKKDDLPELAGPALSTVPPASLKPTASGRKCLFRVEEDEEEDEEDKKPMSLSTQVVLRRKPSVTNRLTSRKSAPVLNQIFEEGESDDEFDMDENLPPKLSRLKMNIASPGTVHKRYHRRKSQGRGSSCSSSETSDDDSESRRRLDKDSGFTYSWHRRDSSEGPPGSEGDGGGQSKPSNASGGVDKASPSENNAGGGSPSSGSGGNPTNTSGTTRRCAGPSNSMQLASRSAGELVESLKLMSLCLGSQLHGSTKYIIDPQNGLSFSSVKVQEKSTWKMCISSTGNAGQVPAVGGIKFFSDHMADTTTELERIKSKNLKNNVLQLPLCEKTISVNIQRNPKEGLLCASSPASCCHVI

[4] = target: Serine/threonine-protein kinase PAK 6 (Homo sapiens) (UniProt Q9NQU5); conditions: Compound concentration 1000.0 nM
[5] = target: Serine/threonine-protein kinase WNK1 (Homo sapiens) (UniProt Q9H4A3); conditions: Compound concentration 1000.0 nM
[6] = target: Hepatocyte growth factor receptor (Homo sapiens) (UniProt P08581); conditions: Compound concentration 1000.0 nM
[7] = target: Tyrosine-protein kinase Yes (Homo sapiens) (UniProt P07947); conditions: Compound concentration 1000.0 nM
[8] = target: T2, Serine/threonine-protein kinase 3 (Homo sapiens) (UniProt Q13188); conditions: Compound concentration 1000.0 nM
T2 sequence (whole entry): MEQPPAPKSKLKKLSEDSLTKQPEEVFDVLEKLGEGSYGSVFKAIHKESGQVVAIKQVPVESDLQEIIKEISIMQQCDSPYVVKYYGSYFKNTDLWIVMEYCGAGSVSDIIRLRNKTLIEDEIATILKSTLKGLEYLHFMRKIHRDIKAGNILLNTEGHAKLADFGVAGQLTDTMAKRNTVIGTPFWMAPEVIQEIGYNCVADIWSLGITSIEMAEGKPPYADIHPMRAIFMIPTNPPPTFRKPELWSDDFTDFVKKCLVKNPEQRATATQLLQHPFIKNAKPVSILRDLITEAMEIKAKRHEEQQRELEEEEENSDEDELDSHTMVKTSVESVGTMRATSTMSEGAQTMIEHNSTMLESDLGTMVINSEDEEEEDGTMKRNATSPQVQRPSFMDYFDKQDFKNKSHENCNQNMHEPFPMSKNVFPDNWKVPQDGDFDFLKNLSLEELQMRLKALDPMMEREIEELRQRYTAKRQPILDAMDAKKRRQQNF

[9] = target: Calcium/calmodulin-dependent protein kinase kinase 2 (Homo sapiens) (UniProt Q96RR4); conditions: Compound concentration 1000.0 nM
[10] = target: Mu-type opioid receptor (Homo sapiens) (UniProt P35372); conditions: Compound concentration 10.0 uM
[11] = target: Cyclin-G-associated kinase (Homo sapiens) (UniProt O14976); conditions: Compound concentration 1000.0 nM
[12] = system: Phosphatidylinositol 4,5-bisphosphate 3-kinase catalytic subunit alpha isoform (Homo sapiens), P42336 [C420R]; conditions: Compound concentration 1000.0 nM
[13] = target: 5-hydroxytryptamine receptor 3A (Homo sapiens) (UniProt P46098); conditions: Compound concentration 10.0 uM
[14] = target: Casein kinase I isoform gamma-3 (Homo sapiens) (UniProt Q9Y6M4); conditions: Compound concentration 1000.0 nM
[15] = system: Tyrosine-protein kinase ABL1 (Homo sapiens), P00519 [F317L]; conditions: Compound concentration 1000.0 nM
[16] = target: Citron Rho-interacting kinase (Homo sapiens) (UniProt O14578); conditions: Compound concentration 1000.0 nM
[17] = target: Serine/threonine-protein kinase WNK2 (Homo sapiens) (UniProt Q9Y3S1); conditions: Compound concentration 1000.0 nM
[18] = target: Mitogen-activated protein kinase 15 (Homo sapiens) (UniProt Q8TD08); conditions: Compound concentration 1000.0 nM
[19] = system: Tyrosine-protein kinase ABL1 (Homo sapiens), P00519 [T315I]; conditions: Compound concentration 1000.0 nM
[20] = target: ALK tyrosine kinase receptor (Homo sapiens) (UniProt Q9UM73); conditions: Compound concentration 1000.0 nM

Serine/threonine-protein kinase WNK2 (Homo sapiens), sequence (Q9Y3S1 whole entry): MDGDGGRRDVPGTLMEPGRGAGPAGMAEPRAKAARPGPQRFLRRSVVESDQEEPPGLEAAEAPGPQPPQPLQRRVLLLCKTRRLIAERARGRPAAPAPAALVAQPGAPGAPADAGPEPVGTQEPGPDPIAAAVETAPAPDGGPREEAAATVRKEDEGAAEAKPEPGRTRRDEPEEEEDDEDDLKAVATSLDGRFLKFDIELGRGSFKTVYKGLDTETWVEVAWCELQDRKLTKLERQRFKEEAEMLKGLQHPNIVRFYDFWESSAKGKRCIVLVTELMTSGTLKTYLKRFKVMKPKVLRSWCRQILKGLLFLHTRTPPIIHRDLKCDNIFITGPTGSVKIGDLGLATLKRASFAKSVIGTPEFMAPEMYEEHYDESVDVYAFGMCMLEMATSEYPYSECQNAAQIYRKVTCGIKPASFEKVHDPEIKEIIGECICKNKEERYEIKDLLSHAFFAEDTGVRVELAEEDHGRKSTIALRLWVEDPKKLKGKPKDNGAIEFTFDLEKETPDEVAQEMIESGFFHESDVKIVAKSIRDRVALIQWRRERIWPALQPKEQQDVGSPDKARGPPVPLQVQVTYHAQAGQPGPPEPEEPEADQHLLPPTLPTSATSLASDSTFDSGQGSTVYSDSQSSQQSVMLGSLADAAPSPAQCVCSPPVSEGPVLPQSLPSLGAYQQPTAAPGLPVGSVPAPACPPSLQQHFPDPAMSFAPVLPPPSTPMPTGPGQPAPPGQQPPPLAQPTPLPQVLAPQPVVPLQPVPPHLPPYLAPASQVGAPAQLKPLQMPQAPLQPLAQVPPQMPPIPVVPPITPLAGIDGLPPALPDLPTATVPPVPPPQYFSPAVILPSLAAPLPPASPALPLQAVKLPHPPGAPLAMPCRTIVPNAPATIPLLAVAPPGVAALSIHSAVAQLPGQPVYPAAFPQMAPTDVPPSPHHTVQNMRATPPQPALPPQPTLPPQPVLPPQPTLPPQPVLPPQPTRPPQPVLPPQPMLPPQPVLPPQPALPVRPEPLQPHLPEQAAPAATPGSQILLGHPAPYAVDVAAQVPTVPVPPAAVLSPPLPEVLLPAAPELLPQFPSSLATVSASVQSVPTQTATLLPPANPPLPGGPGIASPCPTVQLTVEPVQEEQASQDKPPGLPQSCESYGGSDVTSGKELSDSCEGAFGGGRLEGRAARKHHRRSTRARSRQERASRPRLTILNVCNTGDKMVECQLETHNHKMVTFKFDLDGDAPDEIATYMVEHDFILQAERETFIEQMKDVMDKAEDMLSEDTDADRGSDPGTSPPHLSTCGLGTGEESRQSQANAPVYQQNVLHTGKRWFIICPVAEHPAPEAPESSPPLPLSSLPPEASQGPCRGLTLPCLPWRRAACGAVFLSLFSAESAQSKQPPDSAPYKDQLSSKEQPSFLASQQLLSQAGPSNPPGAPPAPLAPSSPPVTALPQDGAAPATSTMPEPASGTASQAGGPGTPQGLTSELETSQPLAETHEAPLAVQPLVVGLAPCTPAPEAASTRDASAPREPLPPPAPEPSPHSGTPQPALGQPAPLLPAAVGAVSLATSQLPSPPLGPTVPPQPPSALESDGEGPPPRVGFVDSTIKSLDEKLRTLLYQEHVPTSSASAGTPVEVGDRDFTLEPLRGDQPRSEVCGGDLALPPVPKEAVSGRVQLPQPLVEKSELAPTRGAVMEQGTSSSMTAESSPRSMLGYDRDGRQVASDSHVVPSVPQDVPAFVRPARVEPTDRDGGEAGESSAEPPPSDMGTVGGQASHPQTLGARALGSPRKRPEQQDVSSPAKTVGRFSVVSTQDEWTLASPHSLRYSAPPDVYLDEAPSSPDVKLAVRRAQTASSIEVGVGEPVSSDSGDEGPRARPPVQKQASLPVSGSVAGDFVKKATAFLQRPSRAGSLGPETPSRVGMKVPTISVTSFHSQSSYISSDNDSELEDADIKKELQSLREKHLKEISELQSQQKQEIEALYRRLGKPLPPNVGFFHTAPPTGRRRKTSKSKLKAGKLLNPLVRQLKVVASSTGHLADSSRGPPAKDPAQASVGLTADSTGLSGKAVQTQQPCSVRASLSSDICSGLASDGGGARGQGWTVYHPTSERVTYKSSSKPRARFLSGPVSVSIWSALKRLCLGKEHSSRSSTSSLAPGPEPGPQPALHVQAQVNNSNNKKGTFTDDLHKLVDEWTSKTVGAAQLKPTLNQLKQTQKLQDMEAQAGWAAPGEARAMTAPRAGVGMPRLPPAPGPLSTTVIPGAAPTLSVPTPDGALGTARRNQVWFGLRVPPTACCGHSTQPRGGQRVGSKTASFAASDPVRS
Citron Rho-interacting kinase (Homo sapiens), sequence (O14578 whole entry): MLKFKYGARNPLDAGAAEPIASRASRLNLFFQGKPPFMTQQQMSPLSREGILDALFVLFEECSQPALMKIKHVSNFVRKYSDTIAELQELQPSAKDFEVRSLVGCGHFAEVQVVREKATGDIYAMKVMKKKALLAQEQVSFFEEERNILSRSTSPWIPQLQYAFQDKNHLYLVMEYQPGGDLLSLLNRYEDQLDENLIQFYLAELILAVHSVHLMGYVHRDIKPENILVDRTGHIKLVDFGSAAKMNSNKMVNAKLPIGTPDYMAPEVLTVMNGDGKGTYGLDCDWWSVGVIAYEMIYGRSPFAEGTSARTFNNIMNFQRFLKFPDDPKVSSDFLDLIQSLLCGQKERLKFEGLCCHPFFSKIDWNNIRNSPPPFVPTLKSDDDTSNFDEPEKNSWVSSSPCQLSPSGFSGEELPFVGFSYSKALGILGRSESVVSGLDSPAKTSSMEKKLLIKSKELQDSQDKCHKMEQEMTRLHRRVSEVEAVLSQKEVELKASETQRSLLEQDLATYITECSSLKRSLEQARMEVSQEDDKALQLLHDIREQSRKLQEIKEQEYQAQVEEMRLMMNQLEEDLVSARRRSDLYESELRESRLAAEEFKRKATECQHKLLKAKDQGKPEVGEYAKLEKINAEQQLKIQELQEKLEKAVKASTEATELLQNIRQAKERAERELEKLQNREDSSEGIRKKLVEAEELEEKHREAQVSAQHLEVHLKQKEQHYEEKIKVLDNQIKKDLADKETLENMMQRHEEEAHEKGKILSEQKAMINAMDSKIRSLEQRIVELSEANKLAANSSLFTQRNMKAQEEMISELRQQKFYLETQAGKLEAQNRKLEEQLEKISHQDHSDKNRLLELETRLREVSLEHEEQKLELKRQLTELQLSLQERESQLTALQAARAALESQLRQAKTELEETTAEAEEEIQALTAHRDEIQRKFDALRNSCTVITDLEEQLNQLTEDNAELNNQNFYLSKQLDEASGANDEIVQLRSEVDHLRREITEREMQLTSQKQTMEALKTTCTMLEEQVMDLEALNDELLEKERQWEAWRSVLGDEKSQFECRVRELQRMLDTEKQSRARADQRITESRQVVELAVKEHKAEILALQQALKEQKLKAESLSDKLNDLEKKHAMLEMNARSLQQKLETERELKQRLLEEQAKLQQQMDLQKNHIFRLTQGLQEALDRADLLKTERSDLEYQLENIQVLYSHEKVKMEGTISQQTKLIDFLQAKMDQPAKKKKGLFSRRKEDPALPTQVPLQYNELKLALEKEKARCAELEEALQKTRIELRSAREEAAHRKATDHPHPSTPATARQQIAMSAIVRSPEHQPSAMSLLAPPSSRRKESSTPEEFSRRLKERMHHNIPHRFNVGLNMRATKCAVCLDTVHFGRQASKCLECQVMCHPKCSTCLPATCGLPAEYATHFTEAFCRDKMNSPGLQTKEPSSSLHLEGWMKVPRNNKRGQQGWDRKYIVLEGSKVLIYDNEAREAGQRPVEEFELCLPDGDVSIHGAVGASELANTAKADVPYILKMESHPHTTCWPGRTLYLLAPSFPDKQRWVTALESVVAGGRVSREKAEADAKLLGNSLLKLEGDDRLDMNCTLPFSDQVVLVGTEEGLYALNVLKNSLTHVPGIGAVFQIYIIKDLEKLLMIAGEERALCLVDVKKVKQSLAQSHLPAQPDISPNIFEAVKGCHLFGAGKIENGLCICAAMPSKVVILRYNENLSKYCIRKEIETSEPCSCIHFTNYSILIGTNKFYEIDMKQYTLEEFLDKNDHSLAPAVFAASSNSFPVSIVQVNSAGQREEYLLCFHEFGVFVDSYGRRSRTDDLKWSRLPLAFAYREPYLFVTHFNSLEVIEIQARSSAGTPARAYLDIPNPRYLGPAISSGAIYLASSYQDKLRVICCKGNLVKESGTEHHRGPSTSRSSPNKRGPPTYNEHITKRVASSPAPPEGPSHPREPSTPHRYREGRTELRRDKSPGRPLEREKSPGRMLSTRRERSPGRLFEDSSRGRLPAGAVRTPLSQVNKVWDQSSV
Tyrosine-protein kinase Yes (Homo sapiens), sequence (P07947 2-543 limits assumed): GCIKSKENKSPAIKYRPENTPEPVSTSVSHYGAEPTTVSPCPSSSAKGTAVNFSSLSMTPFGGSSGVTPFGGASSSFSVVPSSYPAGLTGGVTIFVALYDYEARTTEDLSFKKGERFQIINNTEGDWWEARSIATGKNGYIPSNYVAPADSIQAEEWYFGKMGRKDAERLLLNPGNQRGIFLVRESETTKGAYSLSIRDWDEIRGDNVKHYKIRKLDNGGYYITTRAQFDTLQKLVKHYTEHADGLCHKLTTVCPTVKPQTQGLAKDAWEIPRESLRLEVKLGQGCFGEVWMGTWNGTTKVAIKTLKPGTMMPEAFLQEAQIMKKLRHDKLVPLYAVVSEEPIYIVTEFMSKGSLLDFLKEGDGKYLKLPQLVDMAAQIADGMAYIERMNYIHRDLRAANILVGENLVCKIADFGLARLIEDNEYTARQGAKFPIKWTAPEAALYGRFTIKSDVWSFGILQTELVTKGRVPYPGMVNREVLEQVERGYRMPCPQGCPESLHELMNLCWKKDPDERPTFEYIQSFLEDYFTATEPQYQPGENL

| SMILES | residual activity [1] [%] | residual activity [2] [%] | residual activity [3] [%] | residual activity [4] [%] | residual activity [5] [%] | residual activity [6] [%] | residual activity [7] [%] | residual activity [8] [%] | residual activity [9] [%] | inhibition [10] [%] | residual activity [11] [%] | residual activity [12] [%] | inhibition [13] [%] | residual activity [14] [%] | residual activity [15] [%] | residual activity [16] [%] | residual activity [17] [%] | residual activity [18] [%] | residual activity [19] [%] | residual activity [20] [%] |
| --- | --- | --- | --- | --- | --- | --- | --- | --- | --- | --- | --- | --- | --- | --- | --- | --- | --- | --- | --- | --- |
| CC1=C(C#N)C(c2ccc3c(c2)c(NC(=O)c2ccccc2C)nn3C)C(C#N)=C(C)N1 [BAY-974] | 90 | 76 | 100 | 100 | 82 | 24 | 88 | 100 | 100 | 13.7 | 100 | 74 | 9.93 | 100 | 97 | 55 | 75 | 89 | 88 | 100 |
| CCc1ccccc1C(=O)Nc1n[nH]c2c(C)c(F)c(C3C(C#N)=C(C)N(C)C(C)=C3C#N)cc12 [BAY-3827] | 91 | 100 | 100 | 93 | 100 | 7.3 | 86 | 80 | 95 | 30.5 | 82 | 100 | 2.79 | 100 | 100 | 90 | 100 | 81 | 100 | 98 |
